Here are results for 2 compounds from patent US11173144B2, “Adrenergic receptor modulating compounds and methods of using the same” (The Board of Trustees of the Leland Stanford Junior …, priority 2016, dated 2021).

One may read the EC50 as the concentration that produces a half-maximal response. What is called inhibition is the share of the control response that was lost under treatment.

For test [1], the target named is ADRB1 (Homo sapiens (Human), UniProt P08588). In words: cAMP assay (homogenous time-resolved fluorescence) in HEK-293 cells stably expressing human recombinant ADRB1. The format is cell-based. As to conditions: Table 4. On the procedure: Pharmacological effects of compounds at the cAMP pathway mediated by ADRB1 are evaluated by measuring cAMP production using the homogenous time-resolved fluorescence detection method with HEK-293 cells stably expressing human recombinant ADRB1. Briefly, cells are suspended in HBSS buffer completed with 20 mM HEPES (pH 7.4) and 500 μM IBMX (3-isobutyl-1-methylxanthine) and distributed at a density of 3×10^3 cells/well. […] The results are expressed as a percent of the maximum efficacy achieved with isoproterenol. Pharmacological effects of compounds at the cAMP pathway mediated by ADRB2 and ADRB3 are measured as described above using CHO cells stably expressing human recombinant ADRB2 and human SK-N-MC neurotumor cells endogenously expressing ADRB3, respectively.
Chain of ADRB1 (P08588 whole entry): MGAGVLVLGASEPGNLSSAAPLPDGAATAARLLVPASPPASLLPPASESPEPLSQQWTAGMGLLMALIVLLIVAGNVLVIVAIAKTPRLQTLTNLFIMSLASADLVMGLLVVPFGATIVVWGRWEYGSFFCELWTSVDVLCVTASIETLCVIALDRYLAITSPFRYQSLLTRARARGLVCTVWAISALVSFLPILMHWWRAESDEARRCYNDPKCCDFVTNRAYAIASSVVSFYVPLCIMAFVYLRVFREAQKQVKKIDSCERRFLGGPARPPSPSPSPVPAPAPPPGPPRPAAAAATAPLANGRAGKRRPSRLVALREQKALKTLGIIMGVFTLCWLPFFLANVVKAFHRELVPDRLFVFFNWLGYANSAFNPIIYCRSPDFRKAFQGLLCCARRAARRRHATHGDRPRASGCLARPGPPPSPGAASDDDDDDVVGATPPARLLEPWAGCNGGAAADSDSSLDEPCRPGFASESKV
After 30 minute incubation with compounds, the cells are lysed and the fluorescence donor (Europium-chelated-labeled cAMP tracer; Eu-cAMP tracer) and fluorescence acceptor (cAMP-specific monoclonal antibodies labeled with the ULight™ dye) are added. […] The results are expressed as a percent of the control response to 10 μM isoproterenol. For subtype selectivity determination, same procedure is performed using Chinese hamster ovary (CHO) cells stably expressing human β2-adrenergic receptors or SK-N-MC human neuroblastoma cell line expressing β3-adrenergic receptors.
ADRB1 EC50 from functional assay (nM)^a, Determined using the homogenous time-resolved fluorescence detection method with HEK-293 cells stably expressing human recombinant ADRB1. ADRB2 IC50 from binding assay(nM)^b, Determined using the Tag-lite Adrenoceptor Beta2 receptor ligand binding assay.
In general terms: cAMP levels reflect the balance of adenylyl cyclase and phosphodiesterase activity.

Test [2] has as its system LPS-induced TNF-α production in primary microglia. Nature of the test: In vitro primary microglia TNF-α assay (LPS stimulation, ELISA). The format is cell-based, rat. As to conditions: rat primary microglia, LPS 10 ng/ml, compound 10 μM, 4 h; read-out: inhibition of LPS-induced TNF-α production. The text has this:
Mixed glial cells are obtained from the cerebral cortex of Sprague Dawley rat pups at postnatal days 1-3. Briefly, neonates are euthanized by decapitation and their brain tissues are collected for isolation of cortex. The isolated cortex was then trypsinized, triturated, and placed onto tissue culture flasks in DMEM supplemented with 10% fetal bovine serum and 1% Penicillin/Streptomycin. After 10 days in vitro, microglia are harvested by gentle shaking of the growth flask, plated in a 96 well plate at a density of 30,000 cells/well, and incubated at 37° C. overnight. […] Following the 4 h incubation, cell media is collected and the concentration of TNF-α is measured by ELISA (Invitrogen, KRC3011) according to the manufacturer's instruction.
The effects of selected compounds on cellular inflammatory response to LPS are determined in primary microglia extracted from a rat. Briefly, mixed glial cells are obtained from the cerebral cortex of Sprague Dawley rat pups at postnatal days 1-3 and cultured in DMEM supplemented with 10% fetal bovine serum. After 7 days in vitro, microglia are harvested by gentle shaking of the growth flask and plated in a 96 well plate at the density of 3×10^4 cells/well. The cells are used following day. Effects of compounds on LPS-induced TNFα production are determined by incubating cells with LPS along with or without test compounds for 4 hours. Following the 4 hour incubation, cell media are collected and concentration of TNFα was measured by EUSA.
(In general: In an ELISA, binding on a coated surface is turned into a signal by an enzyme label.)

Test [3] relates to transient middle cerebral artery occlusion (tMCAO) model of stroke. Nature of the test: tMCAO model of stroke, infarction volume. The format is in vivo. To be noted: rat tMCAO, 3 mg/kg, 21 days. On the procedure:
The tMCAO is performed on animal under isoflurane inhalation anesthesia (4% for induction and 1.5-2.5% for maintenance) in airoxygen mixture ratio 3:1. Ventral neck area is shaved by electric razor and disinfected using betadine followed by 70% ethanol solution. Subsequently, a midline incision is made in the ventral neck area, sharp and blunt dissection techniques are used to isolate left common carotid artery (CCA) and the internal and external carotid arteries (ICA and ECA, respectively). The proximal CCA is ligated below the bifurcation using 3-0 braided silk suture allowing enough room for filament insertion in the area between the ligation and bifurcation. Subsequently, ECA is ligated at its origin dose to the CCA bifurcation, so that the occipital artery stays proximal to the ligature. A microvessel dip is placed on ICA temporarily to avoid excessive bleeding during filament insertion. In order to occlude the origin of middle cerebral artery (MCA), a monofilament with silicon coated tip (0.39 mm diameter, 5-6 mm long) is then inserted into the CCA, the microvessel dip removed following filament advancement into the ICA 20 mm from the bifurcation through small, horizontal incision. The filament is secured in its place by a suture knot placed between the bifurcation and proximal CCA ligature. […]

Test [4] deals with tMCAO rat model of stroke. In words: tMCAO model of stroke, Paw-Whisker test of sensorimotor function. It is filed as in vivo. To be noted: 3 mg/kg then 0.3 mg/kg daily subcutaneous, 28 days. On the procedure: The tMCAO is performed on animal under isoflurane inhalation anesthesia (4% for induction and 1.5-2.5% for maintenance) in airoxygen mixture ratio 3:1. Ventral neck area is shaved by electric razor and disinfected using betadine followed by 70% ethanol solution. Subsequently, a midline incision is made in the ventral neck area, sharp and blunt dissection techniques are used to isolate left common carotid artery (CCA) and the internal and external carotid arteries (ICA and ECA, respectively). The proximal CCA is ligated below the bifurcation using 3-0 braided silk suture allowing enough room for filament insertion in the area between the ligation and bifurcation. Subsequently, ECA is ligated at its origin dose to the CCA bifurcation, so that the occipital artery stays proximal to the ligature. A microvessel dip is placed on ICA temporarily to avoid excessive bleeding during filament insertion. In order to occlude the origin of middle cerebral artery (MCA), a monofilament with silicon coated tip (0.39 mm diameter, 5-6 mm long) is then inserted into the CCA, the microvessel dip removed following filament advancement into the ICA 20 mm from the bifurcation through small, horizontal incision. […] Sensorimotor function was measured by the Paw-Whisker test (vibrissae-evoked forelimb placing) once a week until 4 weeks post stroke. […]

Regarding `COc1ccccc1OCCNC[C@H](O)COc1ccc(O)cc1` [Compound 43], in test [1] (HEK293, 0.5 h, percent efficacy compared to the maximum response achieved with isoproterenol, read-out: cAMP pathway % Iso max), the Emax was 83.3 ± 15.7%. For the same compound, the EC50 in test [1] (read-out: cAMP pathway ADRB1 EC50) lay within 10 to 100 nM. Moreover, the inhibition at 10 µM in test [2] is about 55%.
With `O=C(NCCNCC(O)COc1ccc(O)cc1)N1CCOCC1` (centres unmarked) [Xamoterol, reference compound], the infarction volume result in test [3] is “reduces infarction volume”. Further, the sensorimotor function result in test [4] was “improves sensorimotor function”.
